# Source: patent publication US20260138958A1, “SUBSTITUTED N-PHENYLURACILS AND SALTS THEREOF, AND USE THEREOF AS HERBICIDAL ACTIVE SUBSTANCES” (Bayer Aktiengesellschaft, priority 2022, published 2026)
# What was measured:
# Type in all cases: in vivo
# [1] = system: Triticum aestivum (TRZAS); assay: Post-emergence crop plant compatibility, greenhouse pot test
# Description: (§1) Seeds of monocotyledonous and dicotyledonous weeds and crop plants were placed in sandy loam in plastic or wood-fibre pots, covered with soil and cultivated in a greenhouse under controlled growth conditions. 2 to 3 weeks after sowing, the test plants were treated at the one-leaf stage. The compounds of the invention, formulated in the form of wettable powders (WP) or as emulsion concentrates (EC), were then sprayed onto the green parts of the plants as aqueous suspension or emulsion with addition of 0.5% additive at a water application rate of 600 l/ha (converted). After the test plants had been kept in the greenhouse under optimum growth conditions for about 3 weeks, the activity of the preparations was rated visually in comparison to untreated controls. For example, 100% activity=the plants have died, 0% activity=like control plants.
# (§2) The observed effects on selected crop plants are reported here in comparison to the untreated controls (values in %).
# [2] = system: Polygonum convolvulus (POLCO); assay: Post-emergence herbicidal action, greenhouse pot test
# Description: as §1
# [3] = system: Abutilon theophrasti (ABUTH); assay: as above
# Description: as §1
# [4] = system: Digitaria sanguinalis (DIGSA); assay: as above
# Description: as §1
# [5] = system: Echinochloa crus-galli (ECHCG); assay: as above
# Description: as §1
# [6] = system: Setaria viridis (SETVI); assay: as above
# Description: as §1
# [7] = system: Lolium rigidum (LOLRI); assay: as above
# Description: as §1
# [8] = system: Pharbitis purpurea (PHBPU); assay: as above
# Description: as §1
# [9] = system: Alopecurus myosuroides (ALOMY); assay: as above
# Description: as §1
# [10] = system: Tripleurospermum inodorum (MATIN); assay: as above
# Description: as §1
# [11] = system: Veronica persica (VERPE); assay: as above
# Description: as §1
# [12] = system: Viola tricolor (VIOTR); assay: as above
# Description: as §1
# [13] = system: Bassia scoparia (KCHSC); assay: as above
# Description: as §1
# [14] = system: Amaranthus retroflexus (AMARE); assay: as above
# Description: as §1
# [15] = system: Oryza sativa (ORYSA); assay: Post-emergence crop plant compatibility, greenhouse pot test; details: Oryza sativa, in vivo
# Description: as §1, §2
# [16] = system: Zea mays (ZEAMX); assay: as above; details: Zea mays, in vivo
# Description: as §1, §2
compound,measurement,setting,value
Cn1c(C(F)(F)F)cc(=O)n(-c2cc(Oc3ccccc3OCC(=O)OCC3CC34CCC4)c(Cl)cc2F)c1=O (stereo not drawn) [I.7-19],Post-emergence effect at 1.25 g/ha against TRZAS in %,"[1]; crop plant, post-emergence, 1.25 g/ha",10%
same,Post-emergence effect at 5 g/ha against POLCO in %,[2]; 5 g/ha,100%
same,Post-emergence effect at 20 g/ha against POLCO in %,[2]; 20 g/ha,100%
same,Post-emergence effect at 1.25 g/ha against ABUTH in %,[3],100%
same,Post-emergence effect at 5 g/ha against ABUTH in %,[3]; 5 g/ha,100%
same,Post-emergence effect at 20 g/ha against ABUTH in %,[3]; 20 g/ha,100%
same,Post-emergence effect at 5 g/ha against DIGSA in %,[4]; 5 g/ha,100%
same,Post-emergence effect at 20 g/ha against DIGSA in %,[4]; 20 g/ha,100%
same,Post-emergence effect at 5 g/ha against ECHCG in %,[5],100%
same,Post-emergence effect at 20 g/ha against ECHCG in %,[5]; 20 g/ha,100%
same,Post-emergence effect at 1.25 g/ha against SETVI in %,[6],100%
same,Post-emergence effect at 5 g/ha against SETVI in %,[6]; 5 g/ha,100%
same,Post-emergence effect at 20 g/ha against SETVI in %,[6]; 20 g/ha,100%
same,Post-emergence effect at 20 g/ha against LOLRI in %,[7],80%
same,Post-emergence effect at 1.25 g/ha against PHBPU in %,[8]; 1.25 g/ha,80%
same,Post-emergence effect at 5 g/ha against PHBPU in %,[8]; 5 g/ha,100%
same,Post-emergence effect at 20 g/ha against PHBPU in %,[8]; 20 g/ha,100%
same,Post-emergence effect at 20 g/ha against ALOMY in %,[9]; 20 g/ha,100%
same,Post-emergence effect at 20 g/ha against MATIN in %,[10]; 20 g/ha,100%
same,Post-emergence effect at 1.25 g/ha against VERPE in %,[11]; 1.25 g/ha,90%
same,Post-emergence effect at 5 g/ha against VERPE in %,[11]; 5 g/ha,100%
same,Post-emergence effect at 20 g/ha against VERPE in %,[11]; 20 g/ha,100%
same,Post-emergence effect at 1.25 g/ha against VIOTR in %,[12],100%
same,Post-emergence effect at 5 g/ha against VIOTR in %,[12],100%
same,Post-emergence effect at 20 g/ha against VIOTR in %,[12]; 20 g/ha,100%
same,Post-emergence effect at 1.25 g/ha against KCHSC in %,[13]; 1.25 g/ha,80%
same,Post-emergence effect at 5 g/ha against KCHSC in %,[13]; 5 g/ha,80%
same,Post-emergence effect at 20 g/ha against KCHSC in %,[13]; 20 g/ha,100%
same,Post-emergence effect at 1.25 g/ha against AMARE in %,[14]; 1.25 g/ha,100%
same,Post-emergence effect at 5 g/ha against AMARE in %,[14]; 5 g/ha,100%
same,Post-emergence effect at 20 g/ha against AMARE in %,[14]; 20 g/ha,100%
"Cn1c(C(F)(F)F)cc(=O)n(-c2cc(Oc3ccccc3OCC(=O)OCC3CC3)c(C#N)cc2F)c1=O [I.9-1, Cyclopropylmethyl (2-{2-cyano-4-fluoro-5-[3-methyl-2,6-dioxo-4-(trifluoromethyl)-3,6-dihydropyrimidin-1(2H)-yl]phenoxy}phenoxy)acetate]",Post-emergence effect at 1.25 g/ha against TRZAS in %,"[1]; Triticum aestivum, in vivo",0%
same,Post-emergence effect at 20 g/ha against TRZAS in %,"[1]; Triticum aestivum, in vivo",20%
same,Post-emergence effect at 1.25 g/ha against ORYSA in %,[15],0%
same,Post-emergence effect at 5 g/ha against ORYSA in %,[15],0%
same,Post-emergence effect at 20 g/ha against ORYSA in %,[15],0%
same,Post-emergence effect at 1.25 g/ha against ZEAMX in %,[16],10%
same,Post-emergence effect at 5 g/ha against ZEAMX in %,[16],20%
same,pest or weed control at 5 g/ha,"[2]; Fallopia convolvulus, 504 h, 5 g/ha, read-out: Post-emergence effect at 5 g/ha against POLCO in %",80%
same,pest or weed control at 20 g/ha,"[2]; Fallopia convolvulus, 504 h, 20 g/ha, read-out: Post-emergence effect at 20 g/ha against POLCO in %",100%
same,Post-emergence effect at 1.25 g/ha against ABUTH in %,[3],100%
same,pest or weed control at 5 g/ha,"[3]; Abutilon theophrasti, 504 h, 5 g/ha, read-out: Post-emergence effect at 5 g/ha against ABUTH in %",100%
same,pest or weed control at 20 g/ha,"[3]; Abutilon theophrasti, 504 h, 20 g/ha, read-out: Post-emergence effect at 20 g/ha against ABUTH in %",100%
same,Post-emergence effect at 1.25 g/ha against ECHCG in %,[5]; 1.25 g/ha,80%
same,Post-emergence effect at 5 g/ha against ECHCG in %,[5],100%
same,pest or weed control at 20 g/ha,"[5]; Echinochloa crus-galli, 504 h, 20 g/ha, read-out: Post-emergence effect at 20 g/ha against ECHCG in %",100%
same,Post-emergence effect at 1.25 g/ha against SETVI in %,[6],80%
same,pest or weed control at 5 g/ha,"[6]; Setaria viridis, 504 h, 5 g/ha, read-out: Post-emergence effect at 5 g/ha against SETVI in %",100%
same,pest or weed control at 20 g/ha,"[6]; Setaria viridis, 504 h, 20 g/ha, read-out: Post-emergence effect at 20 g/ha against SETVI in %",100%
same,pest or weed control at 5 g/ha,"[8]; Ipomoea purpurea, 504 h, 5 g/ha, read-out: Post-emergence effect at 5 g/ha against PHBPU in %",100%
same,pest or weed control at 20 g/ha,"[8]; Ipomoea purpurea, 504 h, 20 g/ha, read-out: Post-emergence effect at 20 g/ha against PHBPU in %",100%
same,Post-emergence effect at 5 g/ha against ALOMY in %,[9]; 5 g/ha,100%
same,pest or weed control at 20 g/ha,"[9]; Alopecurus myosuroides, 504 h, 20 g/ha, read-out: Post-emergence effect at 20 g/ha against ALOMY in %",100%
same,Post-emergence effect at 5 g/ha against MATIN in %,[10]; 5 g/ha,80%
same,pest or weed control at 20 g/ha,"[10]; Tripleurospermum inodorum, 504 h, 20 g/ha, read-out: Post-emergence effect at 20 g/ha against MATIN in %",80%
same,pest or weed control at 5 g/ha,"[11]; Veronica persica, 504 h, 5 g/ha, read-out: Post-emergence effect at 5 g/ha against VERPE in %",100%
same,pest or weed control at 20 g/ha,"[11]; Veronica persica, 504 h, 20 g/ha, read-out: Post-emergence effect at 20 g/ha against VERPE in %",100%
same,Post-emergence effect at 1.25 g/ha against VIOTR in %,[12],100%
same,Post-emergence effect at 5 g/ha against VIOTR in %,[12],100%
same,pest or weed control at 20 g/ha,"[12]; Viola tricolor, 504 h, 20 g/ha, read-out: Post-emergence effect at 20 g/ha against VIOTR in %",100%
same,pest or weed control at 1.25 g/ha,"[14]; Amaranthus retroflexus, 504 h, 1.25 g/ha, read-out: Post-emergence effect at 1.25 g/ha against AMARE in %",100%
same,pest or weed control at 5 g/ha,"[14]; Amaranthus retroflexus, 504 h, 5 g/ha, read-out: Post-emergence effect at 5 g/ha against AMARE in %",100%
same,pest or weed control at 20 g/ha,"[14]; Amaranthus retroflexus, 504 h, 20 g/ha, read-out: Post-emergence effect at 20 g/ha against AMARE in %",100%
